The text below walks through data of article PMC11201061, “Mechanistic Study of Antimicrobial Effectiveness of Cyclic Amphipathic Peptide [R4W4] against Methicillin-Resistant Staphylococcus aureus Clinical Isolates” (Antibiotics, 2024).

Where a SMILES comes first, the peptide text is derived from it.

The conditions of data set [1]: 25% fresh human serum in RPMI buffer, 37 °C, peptide 100 µg/mL, 20 h; LC-MS; three independent experiments.
Experimental: Fresh human serum (4 mL) was centrifuged at 12,500× g for 15 min at 4 °C to remove the lipids. A 25% human serum sample was prepared by adding 375 µL of the human serum supernatant to 1125 µL of RPMI buffer. […] The test sample was incubated in a water bath at 37 °C until a predetermined time interval (0, 1, 2, 4, 6, 8.5, 12, and 20 h). At the time intervals, a 150 µL aliquot test sample was added to a 300 µL cocktail solution [ethanol/formic acid (98:2 v/v) mixture] to cease the reaction. The test samples of aliquots were stored on dry ice for 20 min and then centrifuged at 17,200× g for 20 min. For LC-MS analysis, 150 µL supernatant aliquot test samples were stored at −20 °C [54].
A 20 μL aliquot of each sample was analyzed using an Xterra MS C18 column (3.9 × 150 mm, 5 μm, Waters, MA, USA), Nexera XR, and Prominence Shimadzu LC-20AD XR systems (Shimadzu Corporation, Kyoto, Japan) coupled with Shimadzu LC-MS-2020 mass spectrometer (Shimadzu, OR, USA). A two-component LC system consisted of mobile phase A (0.1% formic acid and 10% acetonitrile in water) and mobile phase B (0.1% formic acid and 100% acetonitrile). The flow rate was set at 1.0 mL/min. The Xterra MS C18 column at 40 °C was allowed to equilibrate with 95% mobile phase A. Peptides were loaded to the column and washed for 5 min with 95% mobile Phase A. Analytes were separated using a binary gradient of 0–95% mobile Phase B for 25 min. […] MS was conducted in multiple reaction monitoring and positive electrospray ionization mode. Fourteen concentrations of [R4W4] prepared by two-fold dilution of 200 μg/mL to 0.39 μg/mL were used to prepare calibration curves. The calibration curves were plotted using weighted (1/×2) least-squares linear regression analysis of peptide mass spectra area under the curve (AUC) versus concentration.
Another data set can be described thus: in vitro. Conditions: human, 100% human plasma.
Another data set relates to E. coli 25922. As to the kind of experiment: Checkered board synergy assay with gentamicin. Format: cell-based, Escherichia coli. As for the experimental part: (§1) An amount of 100 µL of [R4W4] peptide test solution at a final concentration of 512 µg/mL was added to each well A-G column 1 in plate A using a multi-channel pipette. A 50 µL MH Broth was added to micro-plate well A-G columns 2–9. Using a multi-channel pipette, a two-fold serial dilution was performed by removing 50 µL solution from column 1 and was added to column 2 with thorough mixing. The micro-pipette was discarded after each transfer. The last portion after column 9 was discarded. In another microplate, 100 µL MHB was added to well B-G columns 1–11 using a multi-channel pipette. A 200 µL gentamicin test solution 512 µg/mL was added to row A, columns 1–11. A two-fold serial dilution was performed by removing 100 µL from rows A to B. The last portion was discarded. Using eight multi-channel pipettes, 50 µL of gentamicin test solution was transferred in the ordinate column A-G row 1 to the first microplate. The plate was incubated at 37 °C for 18–24 h. The fractional inhibitory concentration (FIC) of the antibacterial agents and the fractional inhibitory concentration index (FICI) of the two antibacterial agents were determined to evaluate the synergistic interaction. The FICI was interpreted as follows: FICI ≤ 0.5, synergy; 0.5 < FICI ≤ 1, partial synergy; 1 ≤ FICI < 4, additive effect or indifference; 4 ≤ FICI antagonism and calculated from the mean values from multiple experiments.

The test system of another data set is MRSA USA300. Kind of data set: Checkered board synergy assay with gentamicin. It counts as cell-based, Staphylococcus aureus. The method, then:
as §1

Experimental for in vitro: At the end of incubation at each of the time points, acetonitrile was added to the incubation mixture, followed by centrifugation. Samples were analyzed by HPLC-MS/MS, and peak areas were recorded for each analyte. The area of precursor compound remaining after each time point relative to the amount remaining at time zero, expressed as percent, is calculated. Subsequently, the half-life (T1/2) is estimated from the slope of the initial linear range of the logarithmic curve of the compound remaining (%) versus time, assuming first-order kinetics. The plasma stability experiment was performed at Eurofins Inc. (San Diego, CA, USA) [56].

`N=C(N)NCCC[C@@H]1NC(=O)[C@H](CCCNC(=N)N)NC(=O)[C@H](CCCNC(=N)N)NC(=O)[C@H](Cc2c[nH]c3ccccc23)NC(=O)[C@H](Cc2c[nH]c3ccccc23)NC(=O)[C@H](Cc2c[nH]c3ccccc23)NC(=O)[C@H](Cc2c[nH]c3ccccc23)NC(=O)[C@H](CCCNC(=N)N)NC1=O` [[R4W4]] (cyclo(RRRRWWWW)): the “remaining [R4W4] (intact peptide)” value in data set [1] is on record as “over 70%”. The compound further yielded a half-life at 1 µM in the data set “in vitro” of roughly 1.43 h. Further, the “MIC(A+B) ([R4W4] in combination with gentamicin)” value with E. coli 25922 (E. coli 25922, checkered board) is 1.5 µg/mL; in the data set on MRSA USA300 (MRSA USA300, checkered board), 1.5 µg/mL. Moreover, the “MICA ([R4W4] alone)” value with E. coli 25922 (E. coli 25922, checkered board, 37 °C, 18–24 h, mean values from multiple experiments) was 32 µg/mL; with MRSA USA300 (MRSA USA300, checkered board, 37 °C, 18–24 h, mean values from multiple experiments), 6 µg/mL. The FICA in the data set with E. coli 25922 (E. coli 25922, fractional inhibitory concentration of [R4W4]) turned out to be 0.05; with MRSA USA300 (MRSA USA300, fractional inhibitory concentration of [R4W4]), 0.25. The “reduction in MIC value in combination” value in the data set on E. coli 25922 (E. coli, [R4W4] + gentamicin combination versus alone) is listed as 2 fold; in the data set on MRSA USA300 (MRSA, [R4W4] + gentamicin combination versus alone) it was 4 fold.

By half-life is commonly meant how long it takes for the measured level to halve. A higher half-life goes with slow loss.
